Laboratory results published in patent publication US20220363662A1, “COMPOUNDS AS LXR AGONISTS” (Integral Biosciences Privated Limited, priority 2021, published 2022).

Columns and labels:
[1] = system: U87MG; assay: Cell viability assay (resazurin) in U87MG; type: cell-based; details: Homo sapiens, U-87 MG; 96 hr exposure
Method: (§1) HepG2 (ATCC® HB-8065™), hepatocellular carcinoma, A549 (ATCC® CCL-185™), lung epithelial carcinoma, MCF7 (ATCC® HTB-22™), mammary gland epithelial carcinoma, MDA-MB-231 (ATCC® HTB-26™), TNBC, MiaPaCa-2 (ATCC® CRL-1420™) & Panc-1 (ATCC® CRL-1469™), pancreatic epithelial carcinoma, HCT116 (ATCC® CCL-247™), colon epithelial carcinoma and U87MG (ATCC® HTB-14™), brain epithelial carcinoma cell lines respectively were seeded in the respective medium (DMEM, Cat #10569044 with 10% FBS, Cat #16000044; Gibco for HepG2, A549, MCF7, MDA-MB-231, MiaPaCa-2, Panc-1, HCT116 and MEM, Cat #11095080 with 10% FBS for U87MG). Cells were allowed to grow at 37° C. for 24 hr in 5% CO2 (culture conditions) in a Nuaire incubator (humidified). Serially diluted compounds (100 μl) were added to the culture plate 24 hr later and the cultures were further incubated in culture conditions for 96 hr. […] Fluorescence was then measured using a multimodal plate reader (Biotek Synergy Neo) at an excitation wavelength of 535 nm and emission wavelength of 590 nm to obtain relative fluorescence units. Data analysis was done by subtracting the background fluorescence (only medium blank) value from each reading and then normalizing with the vehicle control (DMSO treated cells) to obtain percent survival/proliferation. […]

[2] = system: MCF7; assay: Cell viability assay (resazurin) in MCF7; type: cell-based; details: Homo sapiens, 96 hr exposure
Method: HepG2 (ATCC® HB-8065™), hepatocellular carcinoma, A549 (ATCC® CCL-185™), lung epithelial carcinoma, MCF7 (ATCC® HTB-22™), mammary gland epithelial carcinoma, MDA-MB-231 (ATCC® HTB-26™), TNBC, MiaPaCa-2 (ATCC® CRL-1420™) & Panc-1 (ATCC® CRL-1469™), pancreatic epithelial carcinoma, HCT116 (ATCC® CCL-247™), colon epithelial carcinoma and U87MG (ATCC® HTB-14™), brain epithelial carcinoma cell lines respectively were seeded in the respective medium (DMEM, Cat #10569044 with 10% FBS, Cat #16000044; Gibco for HepG2, A549, MCF7, MDA-MB-231, MiaPaCa-2, Panc-1, HCT116 and MEM, Cat #11095080 with 10% FBS for U87MG). Cells were allowed to grow at 37° C. for 24 hr in 5% CO2 (culture conditions) in a Nuaire incubator (humidified). Serially diluted compounds (100 μl) were added to the culture plate 24 hr later and the cultures were further incubated in culture conditions for 96 hr. Experiment was terminated at the completion of 96 hr exposure to the drug by replacing the medium with 100 μl of 1 mM of resazurin (R7017; Sigma) prepared in culture medium and the plates were further incubated in culture conditions for 4 hr. Fluorescence was then measured using a multimodal plate reader (Biotek Synergy Neo) at an excitation wavelength of 535 nm and emission wavelength of 590 nm to obtain relative fluorescence units. Data analysis was done by subtracting the background fluorescence (only medium blank) value from each reading and then normalizing with the vehicle control (DMSO treated cells) to obtain percent survival/proliferation. Percent survival at different doses was used to calculate IC50 by fitting the curve to the “four-parameter variable slope logistic model” using Prism Graph Pad.

[3] = system: HepG2; assay: Cell viability assay (resazurin) in HepG2; type: cell-based; details: Homo sapiens, 96 hr exposure
In short: (§2)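 Cells in 10% FBS medium (DMEM; MEM for U87MG) exposed 96 h at 37 °C to serially diluted compound, then 4 h with resazurin (1 mM in medium). Fluorescence (ex 535/em 590 nm) background-subtracted, normalised to DMSO; IC50 by four-parameter variable-slope fit.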

[4] = system: MiaPaCa-2; assay: Cell viability assay (resazurin) in MiaPaCa-2; type: cell-based; details: Homo sapiens, MIA PaCa-2; 96 hr exposure
Method: as §1

[5] = system: MDA-MB-231; assay: Cell viability assay (resazurin) in MDA-MB-231; type: cell-based; details: Homo sapiens, 96 hr exposure, read-out: MDA_MB-231 Cell IC50
In short: as §2

[6] = system: A549; assay: Cell viability assay (resazurin) in A549; type: cell-based; details: Homo sapiens, 96 hr exposure
In short: as §2

[7] = molecular target: T1, LXR beta (Homo sapiens, UniProt P55055); assay: LXR beta agonist assay (Lanthascreen TR-FRET); type: biochemical; details: LXR beta-LBD 5 nM, read-out: LXR-β EC50
T1 construct: 5 μL of 4×LXR beta-LBD was added to each well (final concentration 5 nM); purchased Thermofisher PV4658
T1 sequence (P55055 222-460 limits assumed): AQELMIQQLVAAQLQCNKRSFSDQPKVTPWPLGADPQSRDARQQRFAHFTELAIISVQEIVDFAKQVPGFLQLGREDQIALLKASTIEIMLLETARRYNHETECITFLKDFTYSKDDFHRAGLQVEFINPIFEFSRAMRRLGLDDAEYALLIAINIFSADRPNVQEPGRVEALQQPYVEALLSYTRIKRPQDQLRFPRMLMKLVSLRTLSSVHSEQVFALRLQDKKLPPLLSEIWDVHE
In short: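 TR-FRET coactivator recruitment: 5 nM LXR beta-LBD with 100 nM Fl-D22 peptide and 10 nM Tb-anti-GST antibody (final) in Coregulator Buffer G, 60 min at 22° C, read hourly up to 4 hours. Duplicate three-fold titrations from 30 μM; EC50 by variable-slope nonlinear regression.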

[8] = system: mouse splenocytes; assay: Mouse splenocytes cytotoxicity assay (CTG); type: cell-based; details: Splenocyte, CD3e/CD28 activated Balb/c splenocytes, 72 hr
Method: IC50 values to look at cytotoxicity of compounds on CD3e/CD28 induced splenocytes, was determined in mouse splenocytes isolated from Balb/c mice. Mouse splenocytes (2.5×10^5 cells/well/160 μl) were activated with Anti-mouse CD3e (0.5 μg/mL, coated overnight at 4° C.; Cat #14-0032-82, eBiosciences) and then incubated with serial dilutions of compounds (3 fold, 8 point dose response starting at 30 μM) and treated with Anti-mouse CD28 (1 μg/mL soluble; Cat #16-0289-81, eBiosciences). Splenocytes were further incubated under cell culture conditions for 72 hr after which assay was terminated by addition of CTG. Plate was incubated for 15 min at 37° C., 5% CO2 and luminescence was measured.

[9] = system: mouse splenocytes; assay: Mouse splenocyte assay, cytokine release (mIFN-γ ELISA); type: cell-based; details: Balb/c splenocytes, CD3e/CD28 and PMA+Ionomycin induced, read-out: Enhancement of mIFN-γ release by activated Mouse Splenocyte, EC50
Method: EC50 values of compounds for enhancement of CD3e/CD28 induced mIFNγ release in mouse splenocytes isolated from Balb/c mice and differentiated (Treg) with PMA+Ionomycin. Mouse splenocytes (2*10^5 cells/well) were activated with Anti-mouse CD3e (0.5 μg/mL, coated overnight at 4° C.; Cat #14-0032-82, eBioscience) and then incubated with Anti-mouse CD28 (1 μg/mL soluble; Cat #16-0289-81, eBiosciences). After 48 hr of incubation serial dilutions of compounds (3 fold, 8 point dose response starting at 1 μM) were left for 6-8 hrs at cell culture conditions and then splenocytes were further incubated with PMA (50 ng/mL final concentration) and 1 μg/mL of Ionomycin (final concentration) and incubated under cell culture conditions overnight after which the supernatant was harvested, diluted to 1:50 and ELISA was performed as per the manufacturer's protocol (mIFN-γ kit; Cat #555138 & 550534, BD Biosciences). Plates were read in Biotek plate reader by measuring absorbance at 450 nm.

| Structure (SMILES) | IC50 [1] [µM] | IC50 [2] [µM] | IC50 [3] [µM] | IC50 [4] [µM] | IC50 [5] [µM] | IC50 [6] [µM] | EC50 [7] [nM] | IC50 [8] [µM] | EC50 [9] [nM] |
| --- | --- | --- | --- | --- | --- | --- | --- | --- | --- |
| CN(C)C(=O)c1ccc(NC2CN(C3CCN(C(=O)C(O)(c4ccccc4)C(F)(F)F)CC3)C2)cc1Cl (stereo not shown) [Compound 1.3, 2-chloro-N,N-dimethyl-4-(1-(1-(3,3,3-trifluoro-2-hydroxy-2-phenylpropanoyl)piperidin-4-yl)azetidin-3-ylamino)benzamide] | > 30 | > 25.7 | 13.8 | > 30 | > 30 | > 30 | 1120 |  |  |
| CN(C)C(=O)c1ccc(N2CCN(C3CC4(C3)CN(C(=O)C(O)(c3ccccc3)C(F)(F)F)C4)CC2)cc1Cl (stereo not shown) [Compound 1.4, 2-chloro-N,N-dimethyl-4-(4-(2-(3,3,3-trifluoro-2-hydroxy-2-phenylpropanoyl)-2-azaspiro[3.3]heptan-6-yl)piperazin-1-yl)benzamide] | > 30 | > 30 | > 30 | > 30 | > 30 | > 30 | 450 |  |  |
| O=c1[nH]ccc2cc(N3CCC(C4CCN(S(=O)(=O)c5ccccc5C(F)(F)F)CC4)CC3)cc(Cl)c12 [Compound 1.14, 8-chloro-6-(1′-(2-(trifluoromethyl)phenylsulfonyl)-4,4′-bipiperidin-1-yl)isoquinolin-1(2H)-one] |  |  |  |  |  |  | 2510 | 22.9 | 50 |
| CC(C)(C(=O)N1CCC(N2CCN(c3cc(Cl)c4c(=O)[nH]ccc4c3)CC2)CC1)C(F)(F)F [Compound 1.21, 8-chloro-6-(4-(1-(3,3,3-trifluoro-2,2-dimethylpropanoyl)piperidin-4-yl)piperazin-1-yl)isoquinolin-1(2H)-one] |  |  |  |  |  |  |  | > 30 | 111 |
